Laboratory results taken from patent US11013780B2, “Methods of treating female infertility” (Myovant Sciences GmbH, priority 2016, dated 2021).
Where two headings read alike, the source gives them in different places. Where a SMILES comes first, the peptide text is derived from it. [ ]: non-standard residue; d: D form. Arg(Me) = CNC(=N)NCCC[C@H](N)C(=O)O; Hyp = O=C(O)[C@@H]1C[C@@H](O)CN1; azaGly = NNC(=O)O

Columns and labels:
[1] = PK across species (rats, dogs, monkeys), SC bioavailability; assay type: in vivo; conditions: rat, dog, monkey, plasma, read-out: Bioavailability after SC administration
Description: The PK of API-MA was studied in rats, dogs, and monkeys.

[2] = test system: serum LH and FSH; test: Multiple-dose pharmacodynamics, continuous SC infusion, European men; assay type: in vivo, human
Procedure: This study was a phase 1 study of multiple-day, continuous SC infusions of API-MA to 30 healthy European men over age 50. […] Five to six men received active API-MA, and 1 to 2 men received placebo per dose level cohort. The pharmacodynamics of the following hormones were assessed: LH and FSH.
The SC infusion was started 24 hours after the bolus injection; all specimens collected after the 24-hour time point were collected during the SC infusion. Blood specimens were also collected on days 16, 17, 21, 28 and 44 to monitor the return of the hormone concentrations to baseline values.

[3] = test system: monkey KISS1R; test: Intracellular Ca2+ mobilization (fluorometric imaging plate reader), monkey KISS1R; assay type: cell-based
Procedure: The effects of API-MA on intracellular Ca^2+ mobilization in KISS1R-expressing recombinant cells were evaluated by performing the fluorometric imaging plate reader assay.

[4] = test system: serum LH and FSH; test: Single dose pharmacodynamics (LH, FSH), European men; assay type: in vivo, human
Procedure: Another study was a single dose, phase 1 clinical study of API-MA in healthy men age 50 to 76 years. Subjects enrolled in the first […] cohorts received 0.001, 0.003, 0.01, 0.03, 0.1 or 0.3 mg of API-MA or placebo by single SC bolus. Subjects enrolled in the seventh, eighth, and ninth cohorts received 1, 3, or 6 mg of API-MA or placebo by single 2-hour SC infusion. The pharmacodynamics of each of the following hormones was assessed: LH and FSH. PRL, TSH, cortisol, sex hormone binding globulin (SHBG), and plasma ACTH (also known as corticotropin) concentrations were measured on the day prior to dosing and on day 4, the Final Visit. To measure serum concentrations of LH and FSH in the bolus cohorts, blood specimens were collected at the following nominal times: the day prior to dosing, predose, and 0.083, 0.25, 0.75, 1, 2, 3, 4, 6, 8, 12, 16, 24, 36, 48 and 72 hours postdose. In the infusion cohorts, blood specimens were collected at the following nominal times: the day prior to dosing, predose or start of the infusion, and 0.5, 1, 1.5, 2 (end of infusion), 2.25, 2.5, 3, 4, 6, 8, 10, 14, 18, 26, 50 and 74 hours after the start of infusion. Serum LH concentrations increased after a single SC bolus of API-MA, as well as after a single 2-hour SC infusion of API-MA. The concentrations peaked between 6 and 12 hours and returned to baseline by 72 hours. The magnitudes and durations of the LH concentration increases were similar across the dose range, 0.001 to 6 mg.

[5] = Tissue distribution and excretion of radioactivity in rats; assay type: in vivo
Procedure: The concentrations of the radioactivity in the tissues of male albino and pigmented rats were investigated after a single IV administration of [^14C]API-MA at 1.049 mg/kg (1 mg/kg API-FB). […] The radioactivity, measured in albino rats, was rapidly eliminated from all of the tissues after IV administration of API-MA.
The urinary, fecal, biliary, and expiratory excretion of the dosed radioactivity was investigated after a single SC or IV administration of [^14C]API-MA at 1.049 mg/kg (1 mg/kg API-FB) to male Sprague-Dawley rats in two studies.

[6] = dog, in vivo; cited from earlier work
[7] = rat, in vivo; cited from earlier work
[8] = rats, IV 1 mg/kg API-FB, 24 hours postdose, first study
[9] = rats, IV 1 mg/kg API-FB, 48 hours postdose, second study
[10] = rats, SC 1 mg/kg API-FB, 24 hours postdose, first study
[11] = rats, SC 1 mg/kg API-FB, 48 hours postdose, second study

CC(=O)O.CNC(=N)NCCC[C@H](NC(=O)[C@H](CC(C)C)NC(=O)NNC(=O)[C@H](Cc1ccccc1)NC(=O)[C@@H](NC(=O)[C@H](CC(N)=O)NC(=O)[C@@H]1C[C@@H](O)CN1C(=O)[C@@H](Cc1ccc(O)cc1)NC(C)=O)[C@@H](C)O)C(=O)N[C@@H](Cc1c[nH]c2ccccc12)C(N)=O [API-MA, 2-(N-Acetyl-D-tyrosyl-trans-4-hydroxy-L-prolyl-Lasparaginyl-L-threonyl-L-phenylalanyl)-hydrazinocarbonyl-L-leucyl-Nω-methyl-L-arginyl-L-tryptophanamide monoacetate] (Ac-[dY][Hyp]NTF[azaGly]L[Arg(Me)]W-NH2)
bioavailability [1]: > 55%
Time of gonadotropin peak after bolus ([2]; 0.1 mg SC bolus on day 1): 24 h
Serum LH and FSH concentrations during prolonged infusion ([2]; 13-day SC infusion 0.01 to 1.0 mg/day): declined to values below baseline
Time of LH and FSH return to baseline values postdose ([2]; after 13-day SC infusion): ≤ 7 days
EC50 ([3]; CHO dhfr- cells expressing monkey KISS1R): 0.074 nM
Ratio of EC50 of API-MA to kisspeptin (45-54) ([3]; monkey KISS1R): 0.94
Changes in serum SHBG, prolactin, TSH, corticotropin, cortisol ([4]; any dose level): no relevant changes
Time of FSH return / decline towards baseline ([4]; single dose 0.001 to 6 mg): ≤ 72 h
Time of LH return to baseline ([4]; single dose 0.001 to 6 mg): ≤ 72 h
Tissue distribution of radioactivity ([5]; male albino and pigmented rats, single IV 1 mg/kg API-FB): distributed widely into the tissues
Affinity for melanin in vivo ([5]; pigmented rats, single IV 1 mg/kg API-FB): little affinity for melanin in vivo
Excretion of radioactivity in bile [5, 8]: 20.7%
Excretion of radioactivity in feces [5, 8]: 0.3%
Excretion of radioactivity in urine [5, 8]: 76.6%
Excretion of radioactivity in feces [5, 9]: 28.2%
Excretion of radioactivity in urine [5, 9]: 70.0%
Excretion of radioactivity in bile [5, 10]: 15.5%
Excretion of radioactivity in feces [5, 10]: 0.2%
Excretion of radioactivity in urine [5, 10]: 84.7%
Excretion of radioactivity in feces [5, 11]: 20.4%
Excretion of radioactivity in urine [5, 11]: 78.1%
Excretion via expiration ([5]; rats, SC or IV 1 mg/kg API-FB, second study): minimal

CNC(=N)NCCC[C@H](NC(=O)[C@H](CC(C)C)NC(=O)NNC(=O)[C@H](Cc1ccccc1)NC(=O)[C@@H](NC(=O)[C@H](CC(N)=O)NC(=O)[C@@H]1C[C@@H](O)CN1C(=O)[C@@H](Cc1ccc(O)cc1)NC(C)=O)[C@@H](C)O)C(=O)N[C@@H](Cc1c[nH]c2ccccc12)C(N)=O [Compound 1, 2-(N-Acetyl-D-tyrosyl-trans-4-hydroxy-L-prolyl-L-asparaginyl-L-threonyl-L-phenylalanyl)-hydrazinocarbonyl-L-leucyl-Nω-methyl-L-arginyl-L-tryptophanamide] (Ac-[dY][Hyp]NTF[azaGly]L[Arg(Me)]W-NH2)
bioavailability [6]: 92.4%
bioavailability [7]: 66.3%
